Measured values taken from patent publication US12382957B2, “Lactam compound or salt thereof, complex, and fertilizer and plant growth regulator containing said compound or salt and complex” (AICHI STEEL CORPORATION, priority 2020, dated 2025).

Experiments:
[1] = Stability of aqueous solution (1H-NMR in waters with different pH); assay type: physicochemical; details: aqueous solutions of pH 1 (hydrochloric acid), pH 7 (water), pH 9 (sodium hydrogen carbonate), FIG. 1
Description: In order to investigate the stability of the lactam compound (L2) in water having different pH, an aqueous solution having a pH of 1 using hydrochloric acid, an aqueous solution having a pH of 7 in which the lactam compound (L2) was dissolved in water, and an aqueous solution having a pH of 9 using sodium hydrogen carbonate were subjected to ^1H-NMR measurement.

[2] = tested on: paddy rice variety "Nipponbare"; assay: Alkaline soil cultivation test; assay type: in vivo; details: fossil shellfish soil pH9; 30 μmol administered only once; SPAD 7 days after the administration; FIG. 4
Description: The paddy rice variety “Nipponbare” was seeded in tap water. When roots and buds emerged, seedlings were soaked in a hydroponic solution (formulation in the Horticultural Experiment Station). When the plant height reached about 7 cm, the seedlings were transplanted into fossil shellfish soil having a pH9. Aqueous solutions containing 30 μmol of each of Fe-PDMA, only PDMA, a complex composed of the lactam compound (L2) and iron sulfate (III) (hereinafter, referred to as “Fe(III)-lactam compound (L2)”), a complex composed of the lactam compound (L2) and iron sulfate (II) (hereinafter, referred to as “Fe(II)-lactam compound (L2)”), lactam compound (L2), disodium ethylenediamine tetraacetate, Fe-EDTA, Fe-EDDHA, iron sulfate (III) or iron sulfate (II). were administered only once to each of the soil to measure SPAD values 7 days after the administration. According to FIG. 4, SPAD values were 33.8 and 30.9, respectively when either the Fe-lactam compound (L2) of divalent and trivalent iron was used.

stability of the lactam ring in water [1]: the lactam ring structure is maintained
SMILES: O=C(O)[C@@H]1CCCN1CC[C@@H](C(=O)O)N1CC[C@H](O)C1=O [lactam compound (L2)]
growth effect in alkaline soil [2]: the effect can be obtained
